From PubChem BioAssay (NCI)
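Following 48 hours of exposure in 96-well plates, responses at five concentrations were used to interpolate endpoints linearly. Abbreviation: GI50, concentration required for 50% inhibition of growth. The concentration for full growth arrest is given as TGI.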

What was measured:
Assay in all cases: growth of human tumour cells (NCI), 48 h
[1] = system: HCC-2998 colon
[2] = system: HCT-116 colon
[3] = system: HL-60(TB) leukemia
[4] = system: SK-MEL-28 melanoma
[5] = system: SNB-19 CNS
[6] = system: OVCAR-4 ovarian
[7] = system: MALME-3M melanoma
[8] = system: MDA-MB-435
[9] = system: MDA-MB-231 breast
[10] = system: IGROV1 ovarian
[11] = system: OVCAR-3 ovarian
[12] = system: SK-MEL-2 melanoma
[13] = system: SK-OV-3 ovarian
[14] = system: UACC-257 melanoma
[15] = system: MOLT-4 leukemia
[16] = system: LOX IMVI melanoma
[17] = system: RXF 393 renal
[18] = system: T-47D breast
[19] = system: A549 NSCLC
[20] = system: ACHN renal
[21] = system: SN12C renal
[22] = system: A498 renal
[23] = system: NCI-H226 lung
[24] = system: SW-620 colon
[25] = system: HT29 colon
[26] = system: TK-10 renal
[27] = system: COLO 205 colon
[28] = system: CAKI-1 renal
[29] = system: K-562 leukemia
[30] = system: DU-145 prostate
[31] = system: 786-0 renal
[32] = system: BT-549 breast
[33] = system: NCI-H522 lung
[34] = system: NCI-H460 lung
[35] = system: NCI/ADR-RES ovarian
[36] = system: EKVX NSCLC
[37] = system: U251 CNS
[38] = system: M14 melanoma
[39] = system: UO-31 renal
[40] = system: SF-295 CNS
[41] = system: UACC-62 melanoma
[42] = system: OVCAR-5 ovarian
[43] = system: SK-MEL-5 melanoma
[44] = system: HOP-62 NSCLC
[45] = system: SR leukemia
[46] = system: NCI-H23 lung
[47] = system: SF-268 CNS
[48] = system: MCF7 breast
[49] = system: HCT-15 colon
[50] = system: OVCAR-8 ovarian
[51] = system: KM12 colon

SMILES: COc1ccc(C2=C(c3cn(C)c4ccccc34)C(=O)OC2)cc1OC
- GI50 [1]: 2.86 µM
- TGI [1]: > 100 µM
- GI50 [2]: 1.16 µM
- TGI [2]: > 100 µM
- GI50 [3]: 1.42 µM
- TGI [3]: 6.48 µM
- GI50 [4]: 9.87 µM
- TGI [4]: > 100 µM
- GI50 [5]: 4.18 µM
- TGI [5]: > 100 µM
- GI50 [6]: 6.77 µM
- TGI [6]: > 100 µM
- GI50 [7]: 9.32 µM
- TGI [7]: > 100 µM
- GI50 [8]: 0.265 µM
- TGI [8]: 0.801 µM
- GI50 [9]: 2.42 µM
- TGI [9]: > 100 µM
- GI50 [10]: 1.72 µM
- TGI [10]: > 100 µM
- GI50 [11]: 1.25 µM
- TGI [11]: 5.45 µM
- GI50 [12]: 4.34 µM
- TGI [12]: > 100 µM
- GI50 [13]: 5.6 µM
- TGI [13]: > 100 µM
- GI50 [14]: > 100 µM
- TGI [14]: > 100 µM
- GI50 [15]: 2.8 µM
- TGI [15]: > 100 µM
- GI50 [16]: 4.54 µM
- TGI [16]: > 100 µM
- GI50 [17]: 1.92 µM
- TGI [17]: 6.11 µM
- GI50 [18]: 4.07 µM
- TGI [18]: > 100 µM
- GI50 [19]: 2.67 µM
- TGI [19]: > 100 µM
- GI50 [20]: 7.95 µM
- TGI [20]: > 100 µM
- GI50 [21]: 6.81 µM
- TGI [21]: > 100 µM
- GI50 [22]: 0.374 µM
- TGI [22]: 3.5 µM
- GI50 [23]: 3.26 µM
- TGI [23]: > 100 µM
- GI50 [24]: 0.587 µM
- TGI [24]: > 100 µM
- GI50 [25]: 0.688 µM
- TGI [25]: > 100 µM
- GI50 [26]: > 100 µM
- TGI [26]: > 100 µM
- GI50 [27]: 1.5 µM
- TGI [27]: 27.9 µM
- GI50 [28]: 0.747 µM
- TGI [28]: > 100 µM
- GI50 [29]: 0.441 µM
- TGI [29]: > 100 µM
- GI50 [30]: 3.13 µM
- TGI [30]: > 100 µM
- GI50 [31]: 6.67 µM
- TGI [31]: > 100 µM
- GI50 [32]: 2.79 µM
- TGI [32]: > 100 µM
- GI50 [33]: 1.19 µM
- TGI [33]: > 100 µM
- GI50 [34]: 2.21 µM
- TGI [34]: > 100 µM
- GI50 [35]: 0.87 µM
- TGI [35]: > 100 µM
- GI50 [36]: 4.64 µM
- TGI [36]: > 100 µM
- GI50 [37]: 2.64 µM
- TGI [37]: > 100 µM
- GI50 [38]: 0.938 µM
- TGI [38]: > 100 µM
- GI50 [39]: 1.93 µM
- TGI [39]: > 100 µM
- GI50 [40]: 2.65 µM
- TGI [40]: > 100 µM
- GI50 [41]: 1.28 µM
- TGI [41]: > 100 µM
- GI50 [42]: 5.96 µM
- TGI [42]: > 100 µM
- GI50 [43]: 3.74 µM
- TGI [43]: > 100 µM
- GI50 [44]: 3 µM
- TGI [44]: > 100 µM
- GI50 [45]: 0.411 µM
- TGI [45]: > 100 µM
- GI50 [46]: 4.04 µM
- TGI [46]: > 100 µM
- GI50 [47]: 16.8 µM
- TGI [47]: > 100 µM
- GI50 [48]: 0.713 µM
- TGI [48]: > 100 µM
- GI50 [49]: 0.621 µM
- TGI [49]: > 100 µM
- GI50 [50]: 4.69 µM
- TGI [50]: > 100 µM
- GI50 [51]: 1.45 µM
- TGI [51]: > 100 µM
